Key:
Type in all cases: in vivo
[1] = test system: Chilo suppressalis (Striped Rice Stemborer); experiment: Example B3: Chilo suppressalis (striped rice stemborer), artificial diet, L2 larvae; conditions: 144 h, application rate of 200 ppm, 6 days after infestation, L2 larvae, read-out: control in at least one of the three categories (mortality, anti-feedant effect, or growth inhibition)
Summary of the method: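 Artificial diet treated with aqueous dilutions of DMSO stocks (10'000 ppm stock), dried, then infested with 6-8 L2 larvae per well. Mortality, anti-feeding and growth inhibition scored against untreated samples 6 days after infestation. Control counted when any category exceeds untreated.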

[2] = test system: Euschistus heros (Neotropical Brown Stink Bug); experiment: Example B2: Euschistus heros (neotropical brown stink bug), soybean leaves sprayed, N2 nymphs; conditions: 120 h, application rate of 200 ppm, 5 days after infestation, N2 nymphs, read-out: control in at least one of the two categories (mortality or growth inhibition)
Experimental: Soybean leaves on agar in 24-well microtiter plates were sprayed with aqueous test solutions prepared from 10′000 ppm DMSO stock solutions. After drying the leaves were infested with N2 nymphs. The samples were assessed for mortality and growth inhibition in comparison to untreated samples 5 days after infestation.

[3] = test system: Plutella xylostella (Diamond Back Moth); experiment: Example B4: Plutella xylostella (diamond back moth), artificial diet, eggs, 24-well; conditions: 192 h, application rate of 200 ppm, 8 days after infestation, eggs, read-out: control in at least one of the two categories (mortality or growth inhibition)
Experimental: 24-well microtiter plates with artificial diet were treated with aqueous test solutions prepared from 10′000 ppm DMSO stock solutions by pipetting. After drying, Plutella eggs were pipetted through a plastic stencil onto a gel blotting paper and the plate was closed with it. The samples were assessed for mortality and growth inhibition in comparison to untreated samples 8 days after infestation.

[4] = test system: Diabrotica Balteata (Corn Root Worm); experiment: Example B1: Diabrotica balteata (corn root worm), maize sprouts sprayed, L2 larvae; conditions: 96 h, application rate of 200 ppm, 4 days after infestation, L2 larvae, read-out: control in at least one of the two categories (mortality or growth inhibition)
Summary of the method: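 Larvae at L2 stage, 6 to 10 per well, feed on dried, spray-treated maize sprouts set on agar. Evaluation after 4 days compares mortality and growth inhibition with untreated samples.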

[5] = test system: Spodoptera littoralis (Egyptian Cotton Leaf Worm); experiment: Example B7: Spodoptera littoralis (Egyptian cotton leaf worm), cotton leaf discs sprayed, L1 larvae; conditions: foliar, 72 h, application rate of 200 ppm, 3 days after infestation, L1 larvae, read-out: control in at least one of the three categories (mortality, anti-feedant effect, or growth inhibition)
Summary of the method: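 Cotton leaf discs on agar were sprayed with aqueous test solutions made from 10′000 ppm DMSO stocks, dried, then infested with five L1 larvae. Mortality, anti-feeding effect and growth inhibition were scored against untreated discs 3 days after infestation; control means any category exceeds untreated.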

[6] = test system: Myzus persicae (Green Peach Aphid); experiment: Example B6: Myzus persicae (green peach aphid) intrinsic activity, sucrose solution; conditions: 120 h, test rate of 12 ppm, 5 days after infestation, intrinsic activity, read-out: mortality
Experimental: Test compounds prepared from 10′000 ppm DMSO stock solutions were applied by pipette into 24-well microtiter plates and mixed with sucrose solution. The plates were closed with a stretched Parafilm. A plastic stencil with 24 holes was placed onto the plate and infested pea seedlings were placed directly on the Parafilm. The infested plate was closed with a gel blotting paper and another plastic stencil and then turned upside down. The samples were assessed for mortality 5 days after infestation.

COCN(c1ncnc2c(C(F)(F)F)cc(C(F)(F)F)cc12)C(C)c1ncnn1-c1ccc(C#N)cn1 (stereo not drawn) [P.7, 6-[5-[1-[[6,8-bis(trifluroomethyl)quina-zolin-4-yl]-(methoxymethyl)amino]ethyl]-1,2,4-triazol-1-yl]pyridine-3-carbonitrile]
≥ 80%: percent control (mortality, anti-feedant effect or growth inhibition) at 200 ppm [1] | percent control (mortality or growth inhibition) at 200 ppm [2] | percent control (mortality or growth inhibition) at 200 ppm [3] | percent control (mortality or growth inhibition) at 200 ppm [4] | percent control (mortality, anti-feedant effect or growth inhibition) at 200 ppm [5]

CC(c1ncnn1-c1ccc(C#N)cn1)N(Cc1ccccc1)c1ncnc2c(C(F)(F)F)cc(C(F)(F)F)cc12 (stereo not drawn) [P.8, 6-[5-[1-[benzyl-[6,8-bis(trifluoromethyl)quina-zolin-4-yl]amino]ethyl]-1,2,4-triazol-1-yl]pyridine-3-carbonitrile]
≥ 80%: percent control (mortality, anti-feedant effect or growth inhibition) at 200 ppm [1] | percent control (mortality or growth inhibition) at 200 ppm [2] | percent control (mortality or growth inhibition) at 200 ppm [3] | percent control (mortality or growth inhibition) at 200 ppm [4] | percent control (mortality, anti-feedant effect or growth inhibition) at 200 ppm [5]

COc1nc(N(CC2CC2)C(C)c2ncnn2-c2ncccn2)c2cc(C(F)(F)F)cc(Cl)c2n1 (stereo not drawn) [P.36, 8-chloro-N-(cyclopropylmethyl)-2-methoxy-N-[1-(2-pyrimidin-2-yl-1,2,4-triazol-3-yl)ethyl]-6-(trifluoromethyl)quinazolin-4-amine]
≥ 80%: percent control (mortality or growth inhibition) at 200 ppm [2] | percent control (mortality or growth inhibition) at 200 ppm [4]

CC(Nc1ncnc2c(Cl)cc(C(F)(F)F)cc12)c1ncnn1-c1ncccn1 (stereo not drawn) [P.43, 8-chloro-N-[1-(2-pyrimidin-2-yl-1,2,4-triazol-3-yl)ethyl]-6-(trifluoromethyl)quinazolin-4-amine]
≥ 80%: percent control (mortality, anti-feedant effect or growth inhibition) at 200 ppm [1] | percent control (mortality or growth inhibition) at 200 ppm [2] | percent control (mortality or growth inhibition) at 200 ppm [3] | percent control (mortality or growth inhibition) at 200 ppm [4]

CC(Nc1ncnc2c(Br)cc(C(F)(F)F)cc12)c1ncnn1-c1ncccn1 (stereo not drawn) [P.47, 8-bromo-N-[1-(2-pyrimidin-2-yl-1,2,4-triazol-3-yl)ethyl]-6-(trifluoromethyl)quinazolin-4-amine]
≥ 80%: percent control (mortality, anti-feedant effect or growth inhibition) at 200 ppm [1] | percent control (mortality or growth inhibition) at 200 ppm [2] | percent control (mortality or growth inhibition) at 200 ppm [3] | percent control (mortality or growth inhibition) at 200 ppm [4] | percent control (mortality, anti-feedant effect or growth inhibition) at 200 ppm [5]

CC(c1nccnc1-n1nccn1)N(CC1CC1)c1ncnc2c(C(F)(F)F)cc(C(F)(F)F)cc12 (stereo not drawn) [P.75, N-(cyclopropylmethyl)-N-[1-[3-(triazol-2-yl)pyrazin-2-yl]ethyl]-6,8-bis(trifluoromethyl)quina-zolin-4-amine]
≥ 80%: percent control (mortality, anti-feedant effect or growth inhibition) at 200 ppm [1] | percent control (mortality or growth inhibition) at 200 ppm [2] | percent control (mortality or growth inhibition) at 200 ppm [3] | percent control (mortality or growth inhibition) at 200 ppm [4]

CC(c1nccnc1-n1nccn1)N(CC1CC1)c1ncnc2c(C(F)(F)F)cc(Br)cc12 (stereo not drawn) [P.78, 6-bromo-N-(cyclopropylmethyl)-N-[1-[3-(triazol-2-yl)pyrazin-2-yl]ethyl]-8-(trifluoromethyl)quinazolin-4-amine]
≥ 80%: percent control (mortality, anti-feedant effect or growth inhibition) at 200 ppm [1] | percent control (mortality or growth inhibition) at 200 ppm [2] | percent control (mortality or growth inhibition) at 200 ppm [3] | percent control (mortality or growth inhibition) at 200 ppm [4]

CC(Nc1nccc2c(C(F)(F)F)cc(C(F)(F)F)cc12)c1ncnn1-c1ncccn1 (stereo not drawn) [P.83, N-[1-(2-pyrimidin-2-yl-1,2,4-triazol-3-yl)ethyl]-5,7-bis(trifluoromethyl)isoquinolin-1-amine]
≥ 80%: percent control (mortality, anti-feedant effect or growth inhibition) at 200 ppm [1] | percent control (mortality or growth inhibition) at 200 ppm [2] | percent control (mortality or growth inhibition) at 200 ppm [3] | percent control (mortality or growth inhibition) at 200 ppm [4]

CC(c1ncnn1-c1ncc(Br)cn1)N(C)c1ncnc2c(C(F)(F)F)cc(C(F)(F)F)cc12 (stereo not drawn) [P.89, N-[1-[2-(5-bromopyrimidin-2-yl)-1,2,4-triazol-3-yl]ethyl]-N-methyl-6,8-bis(trifluoromethyl)quina-zolin-4-amine]
≥ 80%: percent control (mortality, anti-feedant effect or growth inhibition) at 200 ppm [1] | percent control (mortality or growth inhibition) at 200 ppm [2] | percent control (mortality or growth inhibition) at 200 ppm [3] | percent control (mortality or growth inhibition) at 200 ppm [4]

CC(c1nccnc1-c1ncccn1)N(C)c1ncnc2c(C(F)(F)F)cc(C(F)(F)F)cc12 (stereo not drawn) [P.107, N-methyl-N-[1-(3-pyrimidin-2-ylpyrazin-2-yl)ethyl]-6,8-bis(trifluoromethyl)quina-zolin-4-amine]
≥ 80%: percent control (mortality, anti-feedant effect or growth inhibition) at 200 ppm [1] | percent control (mortality or growth inhibition) at 200 ppm [2] | percent control (mortality or growth inhibition) at 200 ppm [3] | percent control (mortality or growth inhibition) at 200 ppm [4] | percent control (mortality, anti-feedant effect or growth inhibition) at 200 ppm [5]

Cc1cnc(-c2ccc(C#N)cn2)c([C@H](C)N(C)c2ncnc3c(C(F)(F)F)cc(C(F)(F)F)cc23)n1 [P.175, 6-[3-[(1S)-1-[[6,8-bis(trifluoromethyl)quina-zolin-4-yl]-methyl-amino]ethyl]-5-methyl-pyraizn-2-yl]pyridine-3-carbonitrile]
≥ 80%: percent control (mortality, anti-feedant effect or growth inhibition) at 200 ppm [1] | percent control (mortality or growth inhibition) at 200 ppm [2] | percent control (mortality or growth inhibition) at 200 ppm [3] | percent control (mortality or growth inhibition) at 200 ppm [4]

C[C@@H](c1ncnn1-c1ccc(C#N)cn1)N(C)c1ncnc2c(C(F)(F)C3CC3)cc(C(F)(F)F)cc12 [P.213, 6-[5-[(1S)-1-[[8-[cyclopropyl(difluoro)meth-yl]-6-(trifluoromethyl)quinazolin-4-yl]-methyl-amino]ethyl]-1,2,4-triazol-1-yl]pyridine-3-carbonitrile]
≥ 80%: percent control (mortality, anti-feedant effect or growth inhibition) at 200 ppm [1] | percent control (mortality or growth inhibition) at 200 ppm [2] | percent control (mortality or growth inhibition) at 200 ppm [3] | percent control (mortality or growth inhibition) at 200 ppm [4] | percent control (mortality, anti-feedant effect or growth inhibition) at 200 ppm [5]

CC(c1ncnn1-c1ccc(C#N)cn1)N(C)c1ncnc2c(OC(F)(F)F)cc(Br)cc12 (stereo not drawn) [P.216, 6-[5-[1-[[6-bromo-8-(trifluoromethoxy)quinazo-lin-4-yl]-methyl-amino]ethyl]-1,2,4-triazol-1-yl]pyridine-3-carbonitrile]
≥ 80%: percent control (mortality, anti-feedant effect or growth inhibition) at 200 ppm [1] | percent control (mortality or growth inhibition) at 200 ppm [2] | percent control (mortality or growth inhibition) at 200 ppm [3] | percent control (mortality or growth inhibition) at 200 ppm [4] | percent control (mortality, anti-feedant effect or growth inhibition) at 200 ppm [5]

CC(Nc1ncnc2c(OC(F)F)cc(Br)cc12)c1ncnn1-c1ncccn1 (stereo not drawn) [P.243, 6-bromo-8-(difluoromethoxy)-N-[1-(2-pyrimidin-2-yl-1,2,4-triazol-3-yl)ethyl]quinazolin-4-amine]
≥ 80%: percent control (mortality, anti-feedant effect or growth inhibition) at 200 ppm [1] | percent control (mortality or growth inhibition) at 200 ppm [3] | percent control (mortality or growth inhibition) at 200 ppm [4] | mortality at 12 ppm [6] | percent control (mortality, anti-feedant effect or growth inhibition) at 200 ppm [5]

CC(=O)N(c1ncnc2c(C(F)(F)F)cc(C(F)(F)F)cc12)C(C)c1ncnn1-c1ccc(C#N)cn1 (stereo not drawn) [P.259, N-[6,8-bis(trifluoromethyl)quina-zolin-4-yl]-N-[1-[2-(5-cyano-2-pyridyl)-1,2,4-triazol-3-yl]ethyl]acetamide]
≥ 80%: percent control (mortality, anti-feedant effect or growth inhibition) at 200 ppm [1] | percent control (mortality or growth inhibition) at 200 ppm [2] | percent control (mortality or growth inhibition) at 200 ppm [3] | percent control (mortality or growth inhibition) at 200 ppm [4] | percent control (mortality, anti-feedant effect or growth inhibition) at 200 ppm [5]

Source: patent publication US20230002359A1, “PESTICIDALLY ACTIVE FUSED BICYCLIC HETEROAROMATIC COMPOUNDS” (priority 2019, published 2023)
